Consider 50 compounds from patent publication US8546579B2, “Bicycloheteroaryl compounds as P2X7 modulators and uses thereof” (Evotec (US) Inc., priority 2006, dated 2013).

This assay deals with T1, P2X7 receptor (Homo sapiens, UniProt Q99572).
T1 construct: host or cells: THP-1 cells differentiated with LPS and IFN-γ
T1 sequence (Q99572 1-595): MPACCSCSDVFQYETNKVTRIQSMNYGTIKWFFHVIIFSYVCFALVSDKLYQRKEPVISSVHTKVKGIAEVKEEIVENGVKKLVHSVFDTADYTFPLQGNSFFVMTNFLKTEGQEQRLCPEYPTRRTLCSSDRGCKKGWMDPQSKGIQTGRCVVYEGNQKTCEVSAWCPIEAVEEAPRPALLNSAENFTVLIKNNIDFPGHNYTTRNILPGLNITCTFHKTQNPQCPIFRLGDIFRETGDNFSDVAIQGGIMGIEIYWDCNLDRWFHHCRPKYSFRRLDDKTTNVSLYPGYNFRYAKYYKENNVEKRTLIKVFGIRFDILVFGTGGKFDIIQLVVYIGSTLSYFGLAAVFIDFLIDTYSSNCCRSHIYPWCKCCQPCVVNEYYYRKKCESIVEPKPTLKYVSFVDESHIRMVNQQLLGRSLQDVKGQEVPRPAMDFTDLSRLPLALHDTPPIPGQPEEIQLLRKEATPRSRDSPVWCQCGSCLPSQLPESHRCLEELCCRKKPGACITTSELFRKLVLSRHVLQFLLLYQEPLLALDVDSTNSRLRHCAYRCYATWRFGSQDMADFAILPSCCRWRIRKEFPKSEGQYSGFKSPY
As to the kind of experiment: IL-1β release assay in differentiated THP-1 cells stimulated with BzATP (Example 9). The arrangement: inhibition: dose or concentration left out as unconfirmed. It counts as cell-based. The following applies: for inhibition at 0.3 µM: 0.3 μM compound, read-out: IL-1β % Inhib. @ 0.3 μM; for inhibition at 0.3 µM / inhibition at 0.1 µM: differentiated THP-1 cells, BzATP 250 uM; for inhibition: THP-1, read-out: IL-1β % Inhib.; for inhibition at 0.1 µM: 0.1 μM compound; for IC50: THP-1 cells, BzATP-stimulated IL-1β release, four parameter logistic fit. The method, then: THP-1 cells (ATCC Cat # 285-IF-100) are plated in 96 well plates at a concentration of 200,000 cells per well and allowed to differentiate in RPMI-1640 media (ATCC Cat # 30-2001) containing 10% FBS, 100 IU/mL penicillin, 100 ug/mL streptomycin, 100 ng/mL LPS and 100 ng/mL IFN-γ for 16 hours. Following differentiation, the cells are treated for an additional 2 hours in RPMI-1640 media containing 100 IU/mL penicillin, 100 ug/mL streptomycin and fresh LPS at 100 ng/mL. The cells are then pretreated for 30 minutes with the compound of interest at the appropriate concentration in RPMI media containing 100 IU/mL penicillin, 100 ug/mL streptomycin. Following the pretreatment 2′,3′-O-(4-benzoylbenzoyl)-adenosine 5′-triphosphate (Sigma Aldrich Cat # B6396) is added to a final concentration of 250 uM and the cells are incubated for an additional 45 minutes. 30 uL of cell supernatant is then collected and IL-1β levels determined via ELISA (R&D systems Cat. # HSLB50) according to manufacturer's recommendations using the Tecan Safire plate reader. Background adjusted IL-1β levels of drug treated and non-treated cells are used to calculate the percent inhibition.
The compounds set forth in Table 1 were tested for activity in a cellular model as described herein. Specifically, cells were pretreated with differing amounts of the compound under test and released IL-1β determined as in Example 9, above. Measurements were made and IC50 values, presented in Table 2, below, were determined by fitting the data to a four parameter logistic equation using GraphPad Prism software (GraphPad Software, Inc). The equation may be expressed by the following formula: Y=Bottom+(Top−Bottom)/(1+10^((Log EC50−X)*HillSlope)) Where X is the logarithm of concentration, Y is the response and Y starts at Bottom and goes to Top with a sigmoid shape.

Setting [1] is: "*" class symbols, read-out: IL-1β % Inhib. ("*" symbols: at 0.1 μM).

Structures are written as SMILES. Read-outs that look alike come from different tables or passages of the source.

In the case of `COc1ccc(CC(=O)Nc2cccc3c(=O)n(CC4CCOCC4)ccc23)cc1OC` [Compound 1103], for the setting “'+' class symbols”, the inhibition at 0.3 µM lay in the range of 0 to 25%. For `CC(C)(C)Cn1ccc2c(NC(=O)Cc3ccc4c(c3)OCO4)cccc2c1=O` [Compound 1265], under “symbols + to ++++”, the inhibition at 0.3 µM fell in the range of 26 to 50%.

Take `CC(C)Cc1ccc(C(=O)Nc2cccc3c(=O)n(CCN(C)C)ccc23)cc1` [Compound 1187]: for the setting “'+' class symbols”, the inhibition at 0.3 µM lay within 0 to 25%.

Consider `CCOc1cccc(C(=O)Nc2cccc3c(=O)n(Cc4cccnc4)ccc23)c1` [Compound 1407], for which the inhibition was 0 to 25%. With `Cc1cccc(C(=O)Nc2cccc3c(=O)n(CC4CCOCC4)ccc23)c1` [Compound 1090], the inhibition at 0.3 µM ('+' class symbols) was in the range of 0 to 25%. `Cc1cc(C)cc(CC(=O)Nc2cccc3c(=O)n(CC(C)(C)C)ccc23)c1` [Compound 1276]: the inhibition at 0.3 µM (symbols + to ++++) lay in the range of 0 to 25%. With `Cn1ccc2c(NC(=O)c3cccc4c3OCCO4)cccc2c1=O` [Compound 1304], the inhibition at 0.3 µM (symbols + to ++++) is 0 to 25%. Take `COc1c(C)cc(C(=O)Nc2cccc3c(=O)n(CCN(C)C)ccc23)cc1C` [Compound 1165]: the inhibition at 0.3 µM ('+' class symbols) lay within 0 to 25%.

Consider `C[C@H]1CC[C@H](C(=O)Nc2cccc3c(=O)n(Cc4ccc(OC(F)(F)F)cc4)ccc23)CC1` [Compound 1549], for which the inhibition is 0 to 25%. Turning to `COCCn1ccc2c(NC(=O)Cc3ccccc3F)cccc2c1=O` [Compound 1435], the inhibition is 0 to 25%. `COCCn1ccc2c(NC(=O)c3cc(Cl)ccc3C)cccc2c1=O` [Compound 1441]: the inhibition was in the range of 0 to 25%. As for `COc1ccccc1CCC(=O)Nc1cccc2c(=O)n(CC3CCOCC3)ccc12` [Compound 1094], the inhibition at 0.3 µM ('+' class symbols) was in the range of 0 to 25%. With `O=C(Cc1ccc2c(c1)OCO2)Nc1cccc2c(=O)n(Cc3ccc(OC(F)(F)F)cc3)ccc12` [Compound 1588], the inhibition fell in the range of 0 to 25%.

Turning to `CN(C)CCn1ccc2c(NC(=O)CCc3ccccc3Cl)cccc2c1=O` [Compound 1037], the inhibition at 0.3 µM ('+' class symbols) was 0 to 25%. For the compound `O=C(CCc1ccc(Cl)cc1)Nc1cccc2c(=O)n(Cc3ccc(OC(F)(F)F)cc3)ccc12` [Compound 1603], the inhibition at 0.1 µM under setting [1] is 0 to 25%. Consider `O=C(CCc1ccc(Cl)cc1)Nc1cccc2c(=O)n(CC3CCOCC3)ccc12` [Compound 1125], for which the inhibition at 0.3 µM ('+' class symbols) is 0 to 25%. As for `Cc1cccc(C(=O)Nc2cccc3c(=O)n(CCN4CCOCC4)ccc23)c1` [Compound 1197], under “'*' class symbols, read-out: IL-1β % Inhib. (asterisk classes, 0.1 μM)”, the inhibition at 0.1 µM lay within 0 to 25%. On to `O=C(Nc1cccc2c(=O)n(CC3CCOCC3)ccc12)C1C[C@@H]2CC[C@H]1C2` (stereo partly shown) [Compound 1122], for which the inhibition at 0.3 µM ('+' class symbols) lay within 0 to 25%. For the compound `Cc1ccccc1CCC(=O)Nc1cccc2c(=O)n(CC3CCOCC3)ccc12` [Compound 1396], the inhibition at 0.1 µM (symbols * to ****, read-out: IL-1β % Inhib. (asterisk symbols: at 0.1 μM)) was in the range of 0 to 25%. With `Cc1cccc(C(=O)Nc2cccc3c(=O)n(Cc4cccnc4)ccc23)c1Cl` [Compound 1370], under “symbols + to ++++”, the inhibition at 0.3 µM was 0 to 25%.

`CN(C)CCn1ccc2c(NC(=O)CC3(O)CC(C)(C)CC(C)(C)C3)cccc2c1=O` [Compound 1390] showed an IC50 of 79.3 nM. Also, for the setting “symbols + to ++++”, the inhibition at 0.3 µM was no less than 76%.

For `Cc1cc(C)cc(CC(=O)Nc2cccc3c(=O)n(CC4CCOCC4)ccc23)c1` [Compound 1121], under “'+' class symbols”, the inhibition at 0.3 µM was 0 to 25%.

Take `Cc1ccc(CCC(=O)Nc2cccc3c(=O)n(CCN(C)C)ccc23)c(C)c1` [Compound 1185]: the inhibition at 0.3 µM ('+' class symbols) fell in the range of 0 to 25%. In the case of `Cc1cc(C(=O)Nc2cccc3c(=O)n(CCN4CCOCC4)ccc23)ccc1F` [Compound 1231], the inhibition at 0.3 µM (symbols + to ++++) was in the range of 0 to 25%.

As to `Cc1cc(C)c(CC(=O)Nc2cccc3c(=O)n(CCCN4CCCC4=O)ccc23)c(C)c1` [Compound 1498], the inhibition lay within 0 to 25%.

In the case of `Cc1cc(C)cc(CC(=O)Nc2cccc3c(=O)n(CC4CCN(C)CC4)ccc23)c1` [Compound 1482], the inhibition lay in the range of 26 to 50%.

In the case of `Cc1ccccc1C(=O)Nc1cccc2c(=O)n(C)ccc12` [Compound 1419], the inhibition was in the range of 0 to 25%. Still for that read-out and setting: with `Cc1c(Cl)cccc1C(=O)Nc1cccc2c(=O)n(CCCN3CCCC3=O)ccc12` [Compound 1534] the figure was 51 to 75%. In the case of `Cc1cccc(C(=O)Nc2cccc3c(=O)n(Cc4ccc(OC(F)(F)F)cc4)ccc23)c1Cl` [Compound 1607], under setting [1], the inhibition at 0.1 µM is 0 to 25%. For `CC(C(=O)Nc1cccc2c(=O)n(C)ccc12)c1ccccc1` (stereo not shown) [Compound 1292], for the setting “symbols + to ++++”, the inhibition at 0.3 µM lay in the range of 0 to 25%. Consider `Cc1ccc(Cl)c(C(=O)Nc2cccc3c(=O)n(CCN4CCOCC4)ccc23)c1` [Compound 1235], for which the inhibition at 0.3 µM (symbols + to ++++) is 0 to 25%. Consider `COc1ccc(C(=O)Nc2cccc3c(=O)n(CC4CCOCC4)ccc23)cc1C` [Compound 1133], for which, for the setting “'+' class symbols”, the inhibition at 0.3 µM lay in the range of 0 to 25%. As to `COCCn1ccc2c(NC(=O)c3ccc4ccccc4c3)cccc2c1=O` [Compound 1434], the inhibition is 0 to 25%. For the compound `COCCn1ccc2c(NC(=O)CCc3ccc4c(c3)OCO4)cccc2c1=O` [Compound 1070], where the note is “'+' class symbols”, the inhibition at 0.3 µM is 0 to 25%. Take `O=C(Nc1cccc2c(=O)n(Cc3ccc(OC(F)(F)F)cc3)ccc12)C1C[C@@H]2CC[C@H]1C2` (stereo partly shown) [Compound 1600]: under setting [1], the inhibition at 0.1 µM was 0 to 25%. Turning to `COCCn1ccc2c(NC(=O)CCCc3ccccc3)cccc2c1=O` [Compound 1319], the inhibition at 0.3 µM (symbols + to ++++) is 0 to 25%. Regarding `COc1ccc(CC(=O)Nc2cccc3c(=O)n(CCCN4CCCC4=O)ccc23)cc1C` [Compound 1539], the inhibition fell in the range of 0 to 25%.

Take `Cc1cccc(C(=O)Nc2cccc3c(=O)n(CC4CCOCC4)ccc23)c1C` [Compound 1086]: under “'+' class symbols”, the inhibition at 0.3 µM fell in the range of 0 to 25%. Turning to `COCCn1ccc2c(NC(=O)c3ccc(F)c(C)c3)cccc2c1=O` [Compound 1334], the inhibition at 0.3 µM (symbols + to ++++) was in the range of 0 to 25%. For the compound `CN(C)CCn1ccc2c(NC(=O)Cc3ccccc3Cl)cccc2c1=O` [Compound 1155], for the setting “'+' class symbols”, the inhibition at 0.3 µM was in the range of 0 to 25%. Consider `Cn1ccc2c(NC(=O)C3C[C@@H]4CC[C@H]3C4)cccc2c1=O` (stereo partly shown) [Compound 1306], for which the inhibition at 0.3 µM (symbols + to ++++) was 0 to 25%. Regarding `O=C(CC1CCCCCC1)Nc1cccc2c(=O)n(Cc3ccc4c(c3)OCCO4)ccc12` [Compound 1013, 2-Cycloheptyl-N-[2-(2,3-dihydro-benzo[1,4]dioxin-6-ylmethyl)-1-oxo-1,2-dihydro-isoquinolin-5-yl]-acetamide], the midpoint of inhibition, the IC50, lay at 0.355 nM. In addition, where the note is “'+' class symbols”, the inhibition at 0.3 µM is no less than 76%.

For the compound `Cc1ccc(C)c(CC(=O)Nc2cccc3c(=O)n(Cc4ccc(OC(F)(F)F)cc4)ccc23)c1` [Compound 1554], the inhibition was 0 to 25%. Still for that read-out and setting: with `CCOc1ccc(CC(=O)Nc2cccc3c(=O)n(Cc4cccnc4)ccc23)cc1` [Compound 1450] the figure was 0 to 25%. With `O=C(Nc1cccc2c(=O)n(CCN3CCOCC3)ccc12)c1cc2cc(Cl)ccc2o1` [Compound 1238], under “symbols + to ++++”, the inhibition at 0.3 µM lay in the range of 26 to 50%. With `COc1ccc(C(=O)Nc2cccc3c(=O)n(Cc4ccc(OC(F)(F)F)cc4)ccc23)cc1Cl` [Compound 1555], the inhibition lay in the range of 0 to 25%. On to `O=C(Nc1cccc2c(=O)n(Cc3cccnc3)ccc12)[C@@]12C[C@@H]3C[C@@H](C[C@@H]1C3)C2` [Compound 1362], for which the inhibition at 0.3 µM (symbols + to ++++) lay within 0 to 25%. For the compound `Cc1ccc(CC(=O)Nc2cccc3c(=O)n(Cc4cccnc4)ccc23)cc1` [Compound 1356], where the note is “symbols + to ++++”, the inhibition at 0.3 µM fell in the range of 0 to 25%. As to `COc1ccc(CC(=O)Nc2cccc3c(=O)n(Cc4cccnc4)ccc23)cc1C` [Compound 1367], the inhibition at 0.3 µM (symbols + to ++++) is 0 to 25%. Regarding `COc1ccc(OC)c(CC(=O)Nc2cccc3c(=O)n(CC4CCN(C)CC4)ccc23)c1` [Compound 1472], the inhibition was 0 to 25%.
